# Results reported in ChEMBL document CHEMBL2062500, “Anti-inflammatory sesquiterpene lactones from the flower of Vernonia cinerea” (Bioorg Med Chem Lett, 2012).
# Calls of active or inactive are those of the source. The calls are words filed in the database; no cut-off is given here.
# System: RAW264.7
# Experiment: Antiinflammatory activity against LPS-induced NO production in mouse RAW264.7 cells assessed as reduction in nitrite level at 50 uM preincubated for 15 mins prior to LPS treatment by Griess method
# Assay type: functional
# Details: not given
row,Structure (SMILES),inhibition at 50 µM [%]
1,C/C=C(\C)C(=O)O[C@H]1C[C@@H](C)[C@]2(OC)CC[C@](C)(/C=C3/OC(=O)C(CO)=C31)O2,99.8
2,C=C(C)C(=O)O[C@H]1C[C@@H](C)[C@]2(OC)CC[C@](C)(/C=C3/OC(=O)C(COC(C)=O)=C31)O2,98.8
3,CC(=O)OCC1=C2/C(=C\[C@@]3(C)CC[C@](O)(O3)[C@H](C)C[C@@H]2O)OC1=O,99.3
4,CO[C@]12CC[C@](C)(/C=C3/OC(=O)C(CO)=C3[C@@H](O)C[C@H]1C)O2,84.2
5,C/C=C(\C)C(=O)O[C@H]1C[C@@H](C)[C@]2(OC)CC[C@](C)(/C=C3/OC(=O)C(COC(C)=O)=C31)O2,99
6,C/C=C(\C)C(=O)O[C@H]1C[C@@H](C)[C@]2(O)CC[C@](C)(/C=C3/OC(=O)C(CO)=C31)O2 (relative stereo),99.8
7,C=C(C)C(=O)O[C@H]1C[C@@H](C)[C@]2(O)CC[C@](C)(/C=C3/OC(=O)C(COC(C)=O)=C31)O2,99.2
8,C[C@@H]1C[C@H](O)C2=C(CO)C(=O)O/C2=C/[C@@]2(C)CC[C@]1(O)O2,82.6
9,C/C=C(\C)C(=O)O[C@H]1C[C@@H](C)[C@]2(O)CC[C@](C)(/C=C3/OC(=O)C(COC(C)=O)=C31)O2,98

# System: not listed separately
# Experiment: Cytotoxicity in mouse RAW264.7 cells assessed as cell survival at 50 uM
# Assay type: cell-based
# Details: read-out: Survival
row,Structure (SMILES),viability at 50 µM [%]
1,C/C=C(\C)C(=O)O[C@H]1C[C@@H](C)[C@]2(OC)CC[C@](C)(/C=C3/OC(=O)C(CO)=C31)O2,15.6
2,C=C(C)C(=O)O[C@H]1C[C@@H](C)[C@]2(OC)CC[C@](C)(/C=C3/OC(=O)C(COC(C)=O)=C31)O2,6.3
3,CC(=O)OCC1=C2/C(=C\[C@@]3(C)CC[C@](O)(O3)[C@H](C)C[C@@H]2O)OC1=O,18
4,CO[C@]12CC[C@](C)(/C=C3/OC(=O)C(CO)=C3[C@@H](O)C[C@H]1C)O2,134
5,C/C=C(\C)C(=O)O[C@H]1C[C@@H](C)[C@]2(OC)CC[C@](C)(/C=C3/OC(=O)C(COC(C)=O)=C31)O2,5.4
6,C/C=C(\C)C(=O)O[C@H]1C[C@@H](C)[C@]2(O)CC[C@](C)(/C=C3/OC(=O)C(CO)=C31)O2 (relative stereo),32.2
7,C=C(C)C(=O)O[C@H]1C[C@@H](C)[C@]2(O)CC[C@](C)(/C=C3/OC(=O)C(COC(C)=O)=C31)O2,31.1
8,C[C@@H]1C[C@H](O)C2=C(CO)C(=O)O/C2=C/[C@@]2(C)CC[C@]1(O)O2,121
9,C/C=C(\C)C(=O)O[C@H]1C[C@@H](C)[C@]2(O)CC[C@](C)(/C=C3/OC(=O)C(COC(C)=O)=C31)O2,31.1

# System: RAW264.7
# Experiment: Antiinflammatory activity against LPS-induced NO production in mouse RAW264.7 cells assessed as reduction in nitrite level preincubated for 15 mins prior to LPS treatment by Griess method
# Assay type: functional, cell-based
# Details: not given
row,Structure (SMILES),IC50 [µM]
1,C/C=C(\C)C(=O)O[C@H]1C[C@@H](C)[C@]2(OC)CC[C@](C)(/C=C3/OC(=O)C(CO)=C31)O2,2.4
2,C=C(C)C(=O)O[C@H]1C[C@@H](C)[C@]2(OC)CC[C@](C)(/C=C3/OC(=O)C(COC(C)=O)=C31)O2,1.5
3,CC(=O)OCC1=C2/C(=C\[C@@]3(C)CC[C@](O)(O3)[C@H](C)C[C@@H]2O)OC1=O,2.7
4,CO[C@]12CC[C@](C)(/C=C3/OC(=O)C(CO)=C3[C@@H](O)C[C@H]1C)O2,28.1
5,C/C=C(\C)C(=O)O[C@H]1C[C@@H](C)[C@]2(OC)CC[C@](C)(/C=C3/OC(=O)C(COC(C)=O)=C31)O2,1.2
6,C/C=C(\C)C(=O)O[C@H]1C[C@@H](C)[C@]2(O)CC[C@](C)(/C=C3/OC(=O)C(CO)=C31)O2 (relative stereo),5.7
7,C=C(C)C(=O)O[C@H]1C[C@@H](C)[C@]2(O)CC[C@](C)(/C=C3/OC(=O)C(COC(C)=O)=C31)O2,6.6
8,C[C@@H]1C[C@H](O)C2=C(CO)C(=O)O/C2=C/[C@@]2(C)CC[C@]1(O)O2,24.7
9,C/C=C(\C)C(=O)O[C@H]1C[C@@H](C)[C@]2(O)CC[C@](C)(/C=C3/OC(=O)C(COC(C)=O)=C31)O2,2
10,CNC(=N)NCCC[C@H](N)C(=O)O,25.1

# System: HEK293
# Experiment: Inhibition of TNFalpha-induced NF-kappaB activity expressed in human HEK 293 cells at 50 uM after 6 hrs by luciferase reporter gene assay
# Assay type: cell-based
# Details: not given
row,Structure (SMILES),inhibition [%]
1,C/C=C(\C)C(=O)O[C@H]1C[C@@H](C)[C@]2(OC)CC[C@](C)(/C=C3/OC(=O)C(CO)=C31)O2,94.1
2,C=C(C)C(=O)O[C@H]1C[C@@H](C)[C@]2(OC)CC[C@](C)(/C=C3/OC(=O)C(COC(C)=O)=C31)O2,94.2
3,CC(=O)OCC1=C2/C(=C\[C@@]3(C)CC[C@](O)(O3)[C@H](C)C[C@@H]2O)OC1=O,90.3
4,CO[C@]12CC[C@](C)(/C=C3/OC(=O)C(CO)=C3[C@@H](O)C[C@H]1C)O2,33.4
5,C/C=C(\C)C(=O)O[C@H]1C[C@@H](C)[C@]2(OC)CC[C@](C)(/C=C3/OC(=O)C(COC(C)=O)=C31)O2,97.6
6,C/C=C(\C)C(=O)O[C@H]1C[C@@H](C)[C@]2(O)CC[C@](C)(/C=C3/OC(=O)C(CO)=C31)O2 (relative stereo),98.6
7,C=C(C)C(=O)O[C@H]1C[C@@H](C)[C@]2(O)CC[C@](C)(/C=C3/OC(=O)C(COC(C)=O)=C31)O2,95.8
8,C[C@@H]1C[C@H](O)C2=C(CO)C(=O)O/C2=C/[C@@]2(C)CC[C@]1(O)O2,65.6
9,C/C=C(\C)C(=O)O[C@H]1C[C@@H](C)[C@]2(O)CC[C@](C)(/C=C3/OC(=O)C(COC(C)=O)=C31)O2,99.6

# System: not listed separately
# Experiment: Cytotoxicity in human HEK293 cells assessed as survival at 50 uM
# Assay type: cell-based
# Details: read-out: Survival
row,Structure (SMILES),viability at 50 µM [%]
1,C/C=C(\C)C(=O)O[C@H]1C[C@@H](C)[C@]2(OC)CC[C@](C)(/C=C3/OC(=O)C(CO)=C31)O2,9.3
2,C=C(C)C(=O)O[C@H]1C[C@@H](C)[C@]2(OC)CC[C@](C)(/C=C3/OC(=O)C(COC(C)=O)=C31)O2,39.1
3,CC(=O)OCC1=C2/C(=C\[C@@]3(C)CC[C@](O)(O3)[C@H](C)C[C@@H]2O)OC1=O,55
4,CO[C@]12CC[C@](C)(/C=C3/OC(=O)C(CO)=C3[C@@H](O)C[C@H]1C)O2,91.9
5,C/C=C(\C)C(=O)O[C@H]1C[C@@H](C)[C@]2(OC)CC[C@](C)(/C=C3/OC(=O)C(COC(C)=O)=C31)O2,16.5
6,C/C=C(\C)C(=O)O[C@H]1C[C@@H](C)[C@]2(O)CC[C@](C)(/C=C3/OC(=O)C(CO)=C31)O2 (relative stereo),87.6
7,C=C(C)C(=O)O[C@H]1C[C@@H](C)[C@]2(O)CC[C@](C)(/C=C3/OC(=O)C(COC(C)=O)=C31)O2,95.1
8,C[C@@H]1C[C@H](O)C2=C(CO)C(=O)O/C2=C/[C@@]2(C)CC[C@]1(O)O2,100
9,C/C=C(\C)C(=O)O[C@H]1C[C@@H](C)[C@]2(O)CC[C@](C)(/C=C3/OC(=O)C(COC(C)=O)=C31)O2,102

# System: not listed separately
# Experiment: (§1) Inhibition of TNFalpha-induced NF-kappaB activity expressed in human HEK 293 cells after 6 hrs by luciferase reporter gene assay
# Assay type: cell-based
# Details: HEK293, 6 h
row,Structure (SMILES),IC50 [µM]
1,C/C=C(\C)C(=O)O[C@H]1C[C@@H](C)[C@]2(OC)CC[C@](C)(/C=C3/OC(=O)C(CO)=C31)O2,1.6
2,C=C(C)C(=O)O[C@H]1C[C@@H](C)[C@]2(OC)CC[C@](C)(/C=C3/OC(=O)C(COC(C)=O)=C31)O2,13.6
3,Cc1ccc(S(=O)(=O)N[C@@H](Cc2ccccc2)C(=O)CCl)cc1 [TPCK],3.8
4,CC(=O)OCC1=C2/C(=C\[C@@]3(C)CC[C@](O)(O3)[C@H](C)C[C@@H]2O)OC1=O,10.2
5,C/C=C(\C)C(=O)O[C@H]1C[C@@H](C)[C@]2(OC)CC[C@](C)(/C=C3/OC(=O)C(COC(C)=O)=C31)O2,12.8
6,C/C=C(\C)C(=O)O[C@H]1C[C@@H](C)[C@]2(O)CC[C@](C)(/C=C3/OC(=O)C(CO)=C31)O2 (relative stereo),3.1
7,C=C(C)C(=O)O[C@H]1C[C@@H](C)[C@]2(O)CC[C@](C)(/C=C3/OC(=O)C(COC(C)=O)=C31)O2,5.2
8,C[C@@H]1C[C@H](O)C2=C(CO)C(=O)O/C2=C/[C@@]2(C)CC[C@]1(O)O2,1.9
9,C/C=C(\C)C(=O)O[C@H]1C[C@@H](C)[C@]2(O)CC[C@](C)(/C=C3/OC(=O)C(COC(C)=O)=C31)O2,0.6
10,Cc1ccc(S(=O)(=O)/C=C/C#N)cc1,2

# System: HEK293
# Experiment: as §1
# Assay type: cell-based
# Details: not given
row,Structure (SMILES),inhibition
1,CO[C@]12CC[C@](C)(/C=C3/OC(=O)C(CO)=C3[C@@H](O)C[C@H]1C)O2,inactive
